Assay results reported in patent US10030016B2 (Sunesis Pharmaceuticals, Inc., priority 2009, dated 2018).
Read-outs that look alike come from different tables or passages of the source.

How the values were obtained:
[1] = target: PDK1 (Homo sapiens (Human), UniProt O15530); test: PDK1 kinase assay (coupled PDK1/AKT/FAM-crosstide assay, IMAP fluorescence polarization); assay type: biochemical
In short: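 GST-tagged PDK1 (aa 51-359, 0.75 nM) was coupled to unphosphorylated GST-AKT2 140-467-PIFtide (10 nM) and 100 nM FAM-crosstide at 40 μM ATP, in Tris pH 7.2 buffer, for 30 min at 25 °C. Crosstide phosphorylation was read by IMAP fluorescence polarization (ΔmP) and fitted with a 4-parameter curve.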

[2] = system: phospho-akt (Thr308) in PC-3 cells; test: Inhibition of phospho-akt (Thr308) in PC-3 cells, MSD phospho-akt 308 ELISA kit; assay type: cell-based; conditions: Homo sapiens, 2 hours, no serum, read-out: EC50
In short: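 Serum-free 2 h compound exposure of overnight-seeded PC-3 cells, threefold dilution series; lysates analysed on blocked MSD plates (3% BSA) for Thr308-phosphorylated Akt, normalised between DMSO and 5 μM wortmannin wells.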

[3] = inhibition of phospo-PDK1 in vitro
[4] = inhibition of P308 Akt in PC-3 cells, MSD
[5] = inhibition of P308 Akt in PC-3 cells using MSD

Sequence of PDK1 (O15530 51-359): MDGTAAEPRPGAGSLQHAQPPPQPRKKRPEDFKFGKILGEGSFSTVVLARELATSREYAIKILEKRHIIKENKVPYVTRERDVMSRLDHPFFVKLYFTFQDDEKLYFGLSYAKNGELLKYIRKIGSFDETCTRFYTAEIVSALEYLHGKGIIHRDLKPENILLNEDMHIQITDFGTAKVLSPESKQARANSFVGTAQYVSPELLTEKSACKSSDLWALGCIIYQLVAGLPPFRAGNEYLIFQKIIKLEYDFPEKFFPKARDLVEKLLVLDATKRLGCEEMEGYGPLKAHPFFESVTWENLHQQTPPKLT

Row | SMILES | IC50 [1, 3] [µM] | EC50 [2, 4] [µM] | IC50 ([1]; inhibition of PDK1 in vitro) [µM] | EC50 [2, 5] [µM] | EC50 ([2]; PC-3, 2 h, inhibition of P308 Akt in PC-3 cells, MSD) [µM]
1 | CNC(=O)c1cccnc1NCc1cccc(-c2c[nH]c3ncccc23)c1 [Example 1.15, N-methyl-2-{[3-(1H-pyrrolo [2,3-b]pyridin-3-yl)benzyl]amino}pyridine-3-carboxamide] | > 5 | > 10 | – | – | –
2 | Nc1ncnc2ccc(-c3ccc(CNc4ncc(S(=O)(=O)NCc5cccnc5)cc4C(=O)NCc4ccc(F)c(F)c4)s3)cc12 [Example 8.7.13, 2-(((5-(4-aminoquinazolin-6-yl)thiophen-2-yl)methyl)amino)-N-(3,4-difluorobenzyl)-5-(N-(pyridin-3-ylmethyl)sulfamoyl)nicotinamide] | 0.1 to 1 | 1 to 10 | – | – | –
3 | C[C@H](NC(=O)c1cccnc1NCc1ccc(-c2c[nH]c3ncnc(N)c23)s1)c1ccc(F)cc1 [Example 2.20, (S)-2-(((5-(4-amino-7H-pyrrolo[2,3-d]pyrimidin-5-yl)thiophen-2-yl)methyl)amino)-N-(1-(4-fluorophenyl)ethyl)nicotinamide] | 0.1 to 1 | < 1 | – | – | –
4 | C[C@H](NC(=O)c1cccnc1NCc1ccc(-c2cn3ccnc3cn2)s1)c1ccc(F)cc1 [Example 2.8, (S)-N-(1-(4-fluorophenyl)ethyl)-2-(((5-(imidazo[1,2-a]pyrazin-6-yl)thiophen-2-yl)methyl)amino)nicotinamide] | 1 to 5 | > 10 | – | – | –
5 | CC(C)Oc1cc(CNc2ncccc2C(=O)N[C@@H](C)c2ccccc2)cc(-c2c[nH]c3ncc(C(=O)NC4CC4)cc23)c1 [Example 4.1.13, N-cyclopropyl-3-[3-{[(3-{[(1S)-1-phenylethyl]carbamoyl}pyridin-2-yl)amino]methyl}-5-(propan-2-yloxy)phenyl]-1H-pyrrolo[2,3-b] pyridine-5-carboxamide] | < 0.1 | 1 to 10 | – | – | –
6 | O=C(Nc1ccc(F)c(F)c1)c1cccnc1NCc1cccc(-c2c[nH]c3ncccc23)c1 [Example 1.14, N-(3,4-difluorophenyl)-2-{[3-(1H-pyrrolo[2,3-b]pyridin-3-yl)benzyl]amino}pyridine-3-carboxamide] | 0.1 to 1 | – | – | – | 1 to 10
7 | C[C@H](NC(=O)c1cc(C#N)cnc1NCc1ccc(-c2ccc3ncnc(N)c3c2)s1)c1ccc(F)c(F)c1 [Example 8.8.2] | < 0.1 | < 1 | – | – | –
8 | Nc1ncnc2ccc(-c3ccc(CNc4ncc(NS(=O)(=O)Cc5ccccc5)cc4C(=O)NCc4ccc(F)c(F)c4)s3)cc12 [Example 8.6.6, 2-({[5-(4-aminoquinazolin-6-yl)thiophen-2-yl]methyl}amino)-5-[(benzylsulfonyl)amino]-N-(3,4-difluorobenzyl) pyridine-3-carboxamide] | 1 to 5 | 1 to 10 | – | – | –
9 | COCC#Cc1cnc(NCc2ccc(-c3ccc4ncnc(N)c4c3)s2)c(C(=O)N[C@@H](C)c2ccc(F)c(F)c2)n1 [Ex. 10.8, 3-({[5-(4-aminoquinazolin-6-yl)thiophen-2-yl]methyl}amino)-N-[(1S)-1-(3,4-difluorophenyl)ethyl]-6-(3-methoxyprop-1-yn-1-yl)pyrazine-2-carboxamide] | 0.1 to 1 | < 1 | – | – | –

Now from value to compound:

Row | IC50 [1, 3] [µM] | EC50 [2, 4] [µM] | IC50 ([1]; inhibition of PDK1 in vitro) [µM] | EC50 [2, 5] [µM] | EC50 ([2]; PC-3, 2 h, inhibition of P308 Akt in PC-3 cells, MSD) [µM] | SMILES
10 | < 0.1 | < 1 | – | – | – | O=C1Nc2cc(OCCNc3ncccc3C(=O)NCc3ccc(F)cc3)ccc2/C1=C/c1cnc[nH]1 [Example 23, (Z)-2-(2-(3-((1H-imidazol-5-yl)methylene)-2-oxoindolin-6-yloxy)ethylamino)-N-(4-fluorobenzyl)nicotinamide]
11 | – | – | < 0.1 | < 1 | – | Nc1ncnc2[nH]cc(-c3ccc(CNc4ncc(C(F)(F)F)cc4C(=O)Nc4ccc(F)cc4)cc3)c12 [Example 321, 2-(4-(4-amino-7H-pyrrolo [2,3-d]pyrimidin-5-yl)benzylamino)-N-(4-fluorophenyl)-5-(trifluoromethyl)nicotinamide]
12 | – | – | < 0.1 | < 1 | – | Nc1ncnc2ccc(-c3ccc(CNc4ncc(S(=O)(=O)NCCO)cc4C(=O)NCc4ccc(F)c(F)c4)s3)cc12 [Example 343, 2-((5-(4-aminoquinazolin-6-yl)thiophen-2-yl)methyl)amino)-(N-(3,4-difluorobenzyl)-5-(N-(2-hydroxyethyl)sulfamoyl)nicotinamide]
13 | – | – | < 0.1 | 1 to 10 | – | N#Cc1cccc(NC(=O)c2cc(C(F)(F)F)cnc2NCc2ccc(-c3cnc4[nH]nc(N)c4c3)cc2)c1 [Example 439, 2-(4-(3-amino-1H-pyrazolo[3,4-b]pyridin-5-yl)benzylamino)-N-(3-cyanophenyl)-5-(trifluoromethyl) nicotinamide]
14 | – | – | < 0.1 | < 1 | – | C[C@H](NC(=O)c1cc(C#N)cnc1NCc1ccc(-c2cnc(N)c(CCCN(C)C)n2)cc1)c1ccc(F)cc1 [Example 158, (S)-2-(4-(5-amino-6-(3-(dimethylamino)propyl)pyrazin-2-yl)benzylamino)-5-cyano-N-(1-(4-fluorophenyl)ethyl) nicotinamide]
15 | – | – | > 5 | > 10 | – | C[C@@H](NC(=O)c1cc(C(F)(F)F)cnc1NCc1ccc(-c2cnc3[nH]nc(N)c3c2)cc1)c1ccc(Br)cc1 [Example 275, (R)-2-(4-(3-amino-1H-pyrazolo[3,4-b]pyridin-5-yl)benzylamino)-N-(1-(4-bromophenyl)ethyl)-5-(trifluoromethyl) nicotinamide]
16 | < 0.1 | 1 to 10 | – | – | – | CCN(CC)CCNC(=O)c1c(C)[nH]c(/C=C2\C(=O)Nc3cc(/C=C/CNc4ncccc4C(=O)NCc4ccc(F)c(F)c4)ccc32)c1C [Example 15.17, 2-((E)-3-((Z)-3-((4-(2-(diethylamino)ethylcarbamoyl)-3,5-dimethyl-1H-pyrrol-2-yl)methylene)-2-oxoindolin-6-yl)allylamino)-N-(3,4-difluorobenzyl)nicotinamide]
17 | – | – | < 0.1 | < 1 | – | CN(C)CCCn1cc(-c2ccc(CNc3ncc(C(F)(F)F)cc3C(=O)NCc3ccc(F)c(F)c3)cc2)c2c(N)ncnc21 [Example 55, 2-(4-(4-amino-7-(3-(dimethylamino)propyl)-7H-pyrrolo[2,3-d]pyrimidin-5-yl)benzylamino)-N-(3,4-difluorobenzyl)-5-(trifluoromethyl)nicotinamide]
18 | – | – | < 0.1 | 1 to 10 | – | Nc1n[nH]c2ncc(-c3ccc(CNc4ncc(C(F)(F)F)cc4C(=O)Nc4ccc(C(F)(F)F)nc4)cc3)cc12 [Example 276, 2-(4-(3-amino-1H-pyrazolo [3,4-b]pyridin-5-yl)benzylamino)-5-(trifluoromethyl)-N-(6-(trifluoromethyl)pyridin-3-yl)nicotinamide]
19 | – | – | 1 to 5 | 1 to 10 | – | Nc1ccc(-c2ccc(CNc3ncccc3C(=O)Nc3ccc(F)cc3)cc2)cn1 [Example 375, 2-(4-(6-aminopyridin-3-yl)benzylamino)-N-(4-fluorophenyl)nicotinamide]
20 | – | – | < 0.1 | < 1 | – | Nc1n[nH]c2ncc(-c3ccc(CNc4ncc(C(F)(F)F)cc4C(=O)Nc4ccc(F)cn4)cc3)cc12 [Example 59, 2-(4-(3-amino-1H-pyrazolo[3,4-b]pyridin-5-yl)benzylamino)-N-(5-fluoropyridin-2-yl)-5-(trifluoromethyl)nicotinamide]
21 | – | – | < 0.1 | < 1 | – | C[C@H](NC(=O)c1cc(C#N)cnc1NCc1ccc(-c2cnc(N)c(C(=O)NCCCS(C)(=O)=O)n2)cc1)c1ccc(F)cc1 [Example 208]
